This note sets out measurements from ChEMBL document CHEMBL3243950, “New inhibitors of steroid 11beta-hydroxylase. Structure--activity relationship studies of metyrapone-like compounds” (J Med Chem, 1977).

By inhibition is commonly meant the relative decrease from the control value, in per cent. The term Ki denotes the dissociation constant of the complex between target and ligand, obtained from inhibition or displacement.

The structures appear in SMILES notation.

Data set [1] concerns the target T1, Cytochrome P450 11B1, mitochondrial (Bos taurus, UniProt P15150).
T1 sequence (P15150 whole entry): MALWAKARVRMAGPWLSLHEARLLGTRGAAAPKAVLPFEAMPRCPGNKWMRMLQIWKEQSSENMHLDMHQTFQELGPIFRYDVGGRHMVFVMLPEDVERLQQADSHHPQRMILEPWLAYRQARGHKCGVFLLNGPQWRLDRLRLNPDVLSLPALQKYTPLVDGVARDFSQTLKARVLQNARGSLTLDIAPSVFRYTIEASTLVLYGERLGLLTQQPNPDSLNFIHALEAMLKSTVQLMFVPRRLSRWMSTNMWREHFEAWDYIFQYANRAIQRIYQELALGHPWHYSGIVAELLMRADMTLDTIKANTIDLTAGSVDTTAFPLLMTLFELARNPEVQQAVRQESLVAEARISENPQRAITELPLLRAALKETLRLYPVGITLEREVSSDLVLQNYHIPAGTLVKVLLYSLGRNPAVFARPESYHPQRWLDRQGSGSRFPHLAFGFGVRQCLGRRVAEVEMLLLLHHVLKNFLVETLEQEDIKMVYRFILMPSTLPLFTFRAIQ
Put plainly: Inhibition of bovine adrenal gland 11beta-hydroxylase assessed as inhibition of [14C]-deoxycorticosterone hydroxylation at 2 uM. To be noted: cattle.

Data set [2] has as its target T1, Cytochrome P450 11B1, mitochondrial. Put plainly: Inhibition of bovine adrenal gland 11beta-hydroxylase assessed as inhibition of [14C]-deoxycorticosterone hydroxylation at 2 uM relative to metyrapone. To be noted: cattle.
Data set [3] has the same target. Put plainly: Inhibition of bovine adrenal gland 11beta-hydroxylase assessed as amount of corticosterone production using 11 nmol [14C]-deoxycorticosterone measured per 5 mins at 2 nmol. To be noted: cattle.
Data set [4] has the same target. The data set is described as follows: Inhibition of bovine adrenal gland 11beta-hydroxylase assessed as amount of corticosterone production using 11 nmol [14C]-deoxycorticosterone measured per 5 mins at 2 nmol (reference value: 1.3 +/- 0.04 nmol). To be noted: cattle.
For data set [5] the target is unchanged. Put plainly: Inhibition of bovine adrenal gland 11beta-hydroxylase assessed as amount of corticosterone production using 22 nmol [14C]-deoxycorticosterone measured per 5 mins at 2 nmol (reference value: 1.3 +/- 0.04 nmol). To be noted: cattle.
For data set [6] the target is unchanged. Put plainly: Inhibition of bovine adrenal gland 11beta-hydroxylase assessed as amount of corticosterone production using 22 nmol [14C]-deoxycorticosterone measured per 5 mins at 2 nmol. To be noted: cattle.
The target is the same in data set [7]. The data set is described as follows: Inhibition of bovine adrenal gland 11beta-hydroxylase assessed as inhibition of [14C]-deoxycorticosterone hydroxylation.

In the case of `O=C(c1cccnc1)C(c1ccccc1)c1cccnc1` (stereo not drawn), the inhibition at 2 µM in data set [1] was 35%. Also, the Ratio in data set [2] stood at 0.52.

On to `O=C(c1ccccc1)C(c1ccccc1)c1cccnc1` (stereo not drawn), for which the inhibition at 2 µM in data set [1] was found to be 22%. Further, the Ratio in data set [2] was found to be 0.32.

Take `O=C(c1cccnc1)C(c1ccccc1)c1ccccc1`: the inhibition at 2 µM in data set [1] turned out to be 15%. Moreover, the Ratio in data set [2] is reported as 0.22.

For `O=C(Cc1ccccc1)c1cccnc1`, the inhibition at 2 µM in data set [1] was found to be 9%. Further, the Ratio in data set [2] came out at 0.13.

In the case of `CC(C(=O)c1cccnc1)c1ccccc1` (stereo not drawn), in data set [1], the inhibition at 2 µM was found to be 13%. The Ratio in data set [2] is recorded as 0.19.

With `OC(c1ccccc1)C(c1ccccc1)c1cccnc1` (stereo not drawn), the inhibition at 2 µM in data set [1] came to 44%. Besides, in data set [2], the Ratio was 0.65.

As for `OC(c1cccnc1)C(c1ccccc1)c1ccccc1` (stereo not drawn), the inhibition at 2 µM in data set [1] was found to be 17%. For the same compound, the Ratio in data set [2] came out at 0.25.

Regarding `CC(C(=O)c1ccccc1)c1cccnc1` (stereo not drawn), in data set [1], the inhibition at 2 µM is 44%. In data set [2], the Ratio was found to be 0.65.

For the compound `O=C(Cc1cccnc1)c1ccccc1`, the inhibition at 2 µM in data set [1] was 15%. In addition, in data set [2], the Ratio amounted to 0.22.

For `OC(c1cccnc1)C(c1ccccc1)c1cccnc1` (racemic), the inhibition at 2 µM in data set [1] was found to be 9%. Besides, the Ratio in data set [2] is on record as 0.13.

As to `OC(Cc1cccnc1)c1cccnc1` (racemic), the inhibition at 2 µM in data set [1] amounted to 7%. In data set [2], the Ratio is 0.1.

Take `C[C@@H](c1cccnc1)[C@@H](O)c1cccnc1` (relative stereo): in data set [1], the inhibition at 2 µM was found to be 28%. Moreover, the Ratio in data set [2] is 0.41.

For `CC(C)(c1cccnc1)C(O)c1cccnc1` (stereo not drawn) [METYRAPOL], the inhibition at 2 µM in data set [1] is 44%. Also, the Ratio in data set [2] is listed as 0.65.

Take `CC(C)(C(=O)c1cccnc1)c1cccnc1` [METYRAPONE]: the entries for the “inhibition (INH)” value in data set [3] and in data set [6] were 70% and 68%, respectively. Also, the results for the Activity in data set [4] and in data set [5] were 0.39 nmol and 0.74 nmol, respectively. Further, the inhibition at 2 µM in data set [1] was determined as 68%. In addition, in data set [2], the Ratio was determined as 1. For the same compound, the inhibition constant Ki in data set [7] turned out to be 580 nM.
